Source: PubChem BioAssay (NCI)
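Method: 48-hour compound exposure of cells in 96-well plates, five concentrations, linear interpolation of endpoints. TGI: concentration producing complete growth inhibition.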

What was measured:
Assay in all cases: NCI-60 cell line screen, 48 h
HCT-15 colon = system: HCT-15 colon
UO-31 renal = system: UO-31 renal
MOLT-4 leukemia = system: MOLT-4 leukemia
SF-295 CNS = system: SF-295 CNS
NCI-H522 lung = system: NCI-H522 lung
KM12 colon = system: KM12 colon
PC-3 prostate = system: PC-3 prostate
NCI-H460 lung = system: NCI-H460 lung
NCI-H226 lung = system: NCI-H226 lung
ACHN renal = system: ACHN renal
HT29 colon = system: HT29 colon
OVCAR-3 ovarian = system: OVCAR-3 ovarian
RPMI-8226 leukemia = system: RPMI-8226 leukemia
SK-MEL-2 melanoma = system: SK-MEL-2 melanoma
MDA-MB-435 = system: MDA-MB-435
NCI-H23 lung = system: NCI-H23 lung
MCF7 breast = system: MCF7 breast
RXF 393 renal = system: RXF 393 renal
HOP-92 NSCLC = system: HOP-92 NSCLC
UACC-62 melanoma = system: UACC-62 melanoma

Row | Structure (SMILES) | TGI (HCT-15 colon) [µM] | TGI (UO-31 renal) [µM] | TGI (MOLT-4 leukemia) [µM] | TGI (SF-295 CNS) [µM] | TGI (NCI-H522 lung) [µM] | TGI (KM12 colon) [µM] | TGI (PC-3 prostate) [µM] | TGI (NCI-H460 lung) [µM] | TGI (NCI-H226 lung) [µM] | TGI (ACHN renal) [µM] | TGI (HT29 colon) [µM] | TGI (OVCAR-3 ovarian) [µM] | TGI (RPMI-8226 leukemia) [µM] | TGI (SK-MEL-2 melanoma) [µM] | TGI (MDA-MB-435) [µM] | TGI (NCI-H23 lung) [µM] | TGI (MCF7 breast) [µM] | TGI (RXF 393 renal) [µM] | TGI (HOP-92 NSCLC) [µM] | TGI (UACC-62 melanoma) [µM]
1 | CC(=O)N1c2ccccc2C2=NN(C)C(=N)SC21 (stereo unspecified) | > 100 | > 100 | > 100 | > 100 | > 100 | > 100 | > 100 | > 100 | > 100 | > 100 | > 100 | > 100 | > 100 | > 100 | > 100 | > 100 | > 100 | – | – | –
2 | N#Cc1ccc(/C=C(/C(=O)c2ccccc2)c2ccccc2)cc1 | 30.4 | 28.9 | 10.4 | 35.2 | 29.2 | 10.1 | – | 47.5 | 31.5 | 33.1 | 22.1 | 48.4 | 8.82 | 33.2 | – | 35.2 | – | 39.9 | 39.7 | 31.2
3 | O=c1[nH]c2cc([N+](=O)[O-])ccc2nc1/C(=N/Nc1ccccc1)C(O)c1ccco1 (stereo unspecified) | > 100 | > 100 | > 100 | > 100 | > 100 | > 100 | – | > 100 | 76.1 | > 100 | > 100 | – | > 100 | > 100 | – | – | – | > 100 | – | > 100
4 | S=C=Nc1ccc(CSc2nc3ccccc3[nH]2)cc1 | 28.4 | 34.8 | 55.1 | 32.3 | 19.1 | 31.7 | 32 | 40.4 | – | 30.5 | 32.6 | – | 52.5 | 34.8 | 33.9 | 32.7 | – | 33.5 | 32 | 29.4
5 | COc1cccc2c1C1(O)C2CCCCCCCCCC12OCCCO2 (stereo unspecified) | > 100 | > 100 | > 100 | > 86.9 | > 96.5 | > 100 | > 100 | > 59.5 | > 94.2 | > 100 | > 59.2 | > 81 | > 80.1 | > 73.2 | > 100 | > 100 | > 100 | > 100 | – | > 100
6 | CC(C)=NNc1snnc1C(N)=O | – | > 100 | > 100 | > 100 | > 100 | > 100 | > 100 | – | > 100 | > 100 | > 100 | > 100 | > 100 | > 100 | > 100 | > 100 | > 100 | > 100 | – | > 100
7 | C/C(=N\NC(=O)C[N+](C)(C)C)c1sc(-c2cccnc2)nc1C | – | > 100 | > 100 | > 100 | > 100 | > 100 | – | > 100 | > 100 | > 100 | > 100 | > 100 | > 100 | > 100 | – | > 100 | – | > 100 | > 100 | > 100
8 | CNCCN[C@@H]1c2cc3c(cc2[C@@H](c2cc(OC)c(O)c(OC)c2)[C@H]2C(=O)OC[C@@H]21)OCO3 | 98.7 | 4.96 | 0.0587 | 1.07 | 1.93 | 4.47 | > 41 | – | 0.686 | 1.04 | 1.89 | 4.17 | 0.634 | 1.79 | 6.32 | 1.54 | > 53.3 | 0.747 | – | 0.831
9 | O=C1N2Cc3c4ccc5c3CN3C(=O)N6Cc7c(ccc(c7CN1C6(c1ccccc1)C23c1ccccc1)OCCOCCOc1cc(Br)c(Br)cc1OCCOCCO4)OCCOCCOc1cc(Br)c(Br)cc1OCCOCCO5 (stereo unspecified) | 67.7 | > 100 | > 100 | – | > 100 | > 100 | – | > 100 | > 100 | > 100 | > 100 | > 100 | > 100 | > 100 | – | > 100 | – | > 100 | 90 | > 100
10 | C[C@@H]1[C@H](O)CC2=C(CC[C@@H](O)C2(C)C)[C@@]1(CO)CCc1ccoc1 | > 50 | > 50 | > 50 | > 50 | – | > 50 | > 50 | > 50 | > 50 | > 50 | > 50 | > 50 | – | > 50 | – | > 50 | > 50 | > 50 | > 50 | > 50
11 | CC(=O)OC1OC(c2ccoc2)C[C@@]12C1CCC3O[C@]3(C)[C@]1(C)[C@H](OC(C)=O)[C@H](OC(C)=O)[C@H]2C (stereo partly specified) | > 37.5 | > 37.5 | > 37.5 | > 37.5 | – | > 37.5 | > 37.5 | > 37.5 | > 37.5 | > 37.5 | > 37.5 | > 37.5 | – | > 37.5 | – | > 37.5 | > 37.5 | > 37.5 | > 37.5 | > 37.5
12 | O=C(Cc1nc2sc3c(c2c(=O)[nH]1)CCCC3)Nc1ccccc1 | > 100 | – | > 100 | > 100 | > 100 | > 100 | – | > 100 | > 100 | > 100 | > 100 | > 100 | > 100 | > 100 | – | > 100 | – | 69.9 | > 100 | > 100
13 | N#COc1ccc(Oc2ccccc2)cc1 | > 100 | > 100 | > 100 | > 100 | > 100 | > 100 | – | > 100 | > 100 | > 100 | > 100 | > 100 | 83.5 | > 100 | – | > 100 | – | > 100 | > 100 | > 100
14 | CSc1nc(Nc2ccccc2Cl)c2c(N)nn(C)c2n1 | > 100 | > 100 | > 100 | > 100 | > 100 | > 100 | > 100 | > 100 | > 100 | 26 | > 100 | > 100 | > 100 | > 100 | > 100 | > 100 | – | > 100 | – | > 100
15 | [N-]=[N+]=NC1(c2ccccc2)C(=O)C(Cl)=C(c2ccccc2)N(c2ccccc2)C1=O (stereo unspecified) | > 100 | > 100 | > 100 | > 100 | > 100 | > 100 | – | > 100 | – | > 100 | > 100 | > 100 | – | > 100 | – | > 100 | – | – | > 100 | > 100
16 | O=C(O)[C@@H]1OCCOCCO[C@@H](C(=O)O)[C@H](C(=O)O)OCCOCCO[C@H]1C(=O)O | > 100 | > 100 | > 100 | > 100 | > 100 | > 100 | – | > 100 | > 100 | > 100 | > 100 | > 100 | > 60.9 | > 100 | – | > 100 | – | > 24.9 | > 100 | > 100
17 | CC(C)(C)C1CCC2c3c([nH]c4ncccc34)C3C(=O)N(c4ccccc4)C(=O)C3C2C1 (stereo unspecified) | > 100 | > 100 | > 100 | > 100 | > 100 | > 100 | – | > 100 | > 100 | > 100 | > 100 | > 100 | > 100 | > 100 | – | > 100 | – | > 100 | > 100 | > 100
18 | O=C(c1ccco1)N(C(=S)N1CCN(c2ccccc2)CC1)C1CCCCC1 | > 100 | > 100 | > 100 | > 100 | > 100 | > 100 | – | > 100 | – | > 100 | > 100 | > 100 | > 100 | > 100 | – | > 100 | – | > 100 | > 100 | > 100
19 | O/N=C(/C(Cl)=C(Cl)Cl)C(Cl)Cl | 33.5 | 49 | 37.1 | 35.8 | – | 47.4 | 33.9 | > 100 | > 100 | 32 | 30.3 | 38.6 | 50.2 | – | 33.1 | 30.7 | 60.7 | 30.5 | – | 77.2
20 | COc1ccc2c3c([nH]c(=O)c2c1C(=O)O)-c1ccccc1CC3 | > 100 | > 100 | > 100 | > 100 | > 100 | > 100 | – | > 100 | > 100 | > 100 | > 100 | > 100 | > 100 | > 100 | – | > 100 | – | > 100 | > 100 | –
21 | Cn1nc2ccc([N+](=O)[O-])cc2[n+]1[O-] | > 100 | > 100 | > 100 | > 100 | > 100 | > 100 | > 100 | > 100 | > 100 | > 100 | > 100 | > 100 | – | > 100 | > 100 | > 100 | > 100 | > 100 | – | > 100
22 | COc1cc2oc(=O)cc(C)c2c(OC)c1O | > 100 | > 100 | > 100 | > 100 | – | > 100 | > 100 | – | > 100 | > 100 | > 100 | > 100 | > 100 | > 100 | > 100 | > 100 | > 100 | – | – | > 100
23 | O=C(c1cccc2ccccc12)C1S(=O)(=O)OCCOS1(=O)=O | > 100 | > 100 | > 100 | 0.0412 | – | > 100 | > 100 | > 100 | – | > 100 | > 100 | > 100 | > 100 | > 100 | – | > 100 | > 100 | – | – | –
24 | CCO/S(=N/S(=O)(=O)c1ccccc1)c1ccccc1[N+](=O)[O-] (stereo unspecified) | > 100 | > 100 | > 100 | > 100 | > 100 | > 100 | – | > 100 | > 100 | – | > 100 | > 100 | > 100 | > 100 | – | > 100 | – | – | – | > 100
25 | N#C/C(c1nc2ccccc2[nH]1)=c1\s/c(=C(/N)O)c(=N)n1-c1ccccc1 | > 100 | > 100 | > 100 | > 100 | > 100 | – | – | > 100 | > 100 | > 100 | > 100 | > 100 | – | > 100 | – | > 100 | – | – | > 100 | > 100
26 | N#Cc1cc2c(cc1C#N)/C(=N\c1cccc(N)n1)N=C2Nc1cccc(N)n1 | 76.5 | 47 | > 100 | > 100 | 22.6 | > 100 | > 100 | > 100 | > 100 | 57.3 | 85.7 | > 100 | > 100 | > 100 | 59.7 | 40.1 | > 100 | – | – | 41
27 | Cc1ccc(S(=O)(=O)N/N=C(\c2nc3ccc([N+](=O)[O-])cc3[nH]c2=O)C(O)c2ccc([N+](=O)[O-])cc2)cc1 (stereo unspecified) | > 100 | > 100 | > 100 | > 100 | > 100 | – | – | > 100 | – | > 100 | – | > 100 | > 100 | > 100 | – | > 100 | – | > 100 | > 100 | > 100
